From PubChem BioAssay (NCI)
Values joined by “and” are separate entries in the source; they are usually repeats but may differ in a detail not shown here. Equal entries are not always repeated.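 Compound exposure: 48 hours, 5 concentrations, 96-well plates. Here, GI50 denotes the concentration required for 50% inhibition of growth. TGI: total growth inhibition.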

Assays:
Experiment in all cases: inhibition of tumour cell growth, NCI panel, 48 h
SK-MEL-2 melanoma = test system: SK-MEL-2 melanoma
UACC-257 melanoma = test system: UACC-257 melanoma
SNB-78 CNS = test system: SNB-78 CNS
IGROV1 ovarian = test system: IGROV1 ovarian
HL-60(TB) leukemia = test system: HL-60(TB) leukemia
LXFL 529 NSCLC = test system: LXFL 529 NSCLC
NCI-H226 lung = test system: NCI-H226 lung
SF-539 CNS = test system: SF-539 CNS
U251 CNS = test system: U251 CNS
RPMI-8226 leukemia = test system: RPMI-8226 leukemia

Compound	TGI (SK-MEL-2 melanoma) [µM]	TGI (UACC-257 melanoma)	TGI (SNB-78 CNS) [µM]	TGI (IGROV1 ovarian) [µM]	TGI (HL-60(TB) leukemia) [µM]	TGI (LXFL 529 NSCLC) [µM]	TGI (NCI-H226 lung) [µM]	TGI (SF-539 CNS) [µM]	TGI (U251 CNS) [µM]	TGI (RPMI-8226 leukemia) [µM]	GI50 (SK-MEL-2 melanoma) [µM]	GI50 (UACC-257 melanoma) [µM]	GI50 (IGROV1 ovarian) [µM]	GI50 (HL-60(TB) leukemia) [µM]	GI50 (RPMI-8226 leukemia) [µM]	GI50 (NCI-H226 lung) [µM]	GI50 (SF-539 CNS) [µM]	GI50 (U251 CNS) [µM]	GI50 (LXFL 529 NSCLC) [µM]
CC(C)c1ccccc1NC(=O)C(=O)Cc1nc2ccccc2s1	> 100	> 100 µM	> 100	> 100	> 100	> 100	> 100	> 100	> 100										
CC1C[C@H](OC(N)=O)C(C)CC1=O (some centres undefined)	> 100	> 100 µM	> 100	> 100	> 100	> 100		> 100	> 100	> 100									
COC1(OC)CC2C=C(S(=O)(=O)c3ccccc3)C1N(Cc1ccccc1)C2=O (centres undefined)		> 100 µM	75.9	> 100	50.5	44.9	75.9	44.9	> 100										
CCOC(=O)N1CCc2cc(OC)c(OC)c3c2C1CC3=O (centres undefined)	> 100	> 100 µM	> 100	> 100	> 100	> 100		> 100	> 100	> 100									
N#CC(C(=O)/C(=N\Nc1nc(=S)[nH]n1N)C(C#N)c1ccc(Cl)cc1)c1ccc(Cl)cc1 (centres undefined)	> 100	> 100 µM	> 100	> 100		> 100	> 100	> 100	> 100	> 100									
CCn1cc(/C=C/C(C)c2cn(CC)c(=O)[nH]c2=O)c(=O)[nH]c1=O (centres undefined)	> 100	> 100 µM		> 100	> 100	> 100		> 100	> 100	> 100									
COc1cc2c(cc1OC)-c1cc3cc(OC)c(OC)cc3n1CC2	> 100	> 100 µM	> 100	> 100	> 100	> 100	73.5		> 100	> 100									
O=S(O)CCCCCSSCCCCSSCCCCCS(=O)O	> 100	> 100 µM	> 100	> 100		> 100		> 100	> 100	> 100									
CCCCCC(O)C1C(=O)OC(C)C(O)/C=C/C=C/C=C/C=C\C=C(\C)C(O)CC(O)CC(O)CC(O)CC(O)CC(O)CC1O (centres undefined)	> 100	50 µM and > 100 µM		> 100	> 100		> 100	> 100	> 100	> 100	> 100	> 100	> 100	> 100	> 100	> 100	> 100	> 100	
O=C(OCc1ccccc1)N1CCN(/[N+]([O-])=N/Oc2ccc([N+](=O)[O-])cc2[N+](=O)[O-])CC1	57	36.5 µM		23.2	57.3		26.3	7.11	27.1	6.1	19.1	19.5	2.01	18.8	2.23	3.55	2.81	4.85	
C=C(C)[C@@H]1CC[C@]2(C)[C@H](C(=O)C=C3[C@@H]4C[C@](C)(C(=O)N5CCN(C)CC5)CC[C@]4(C)CC[C@]32C)[C@@]1(C)CCC#N	14.8	13.9 µM		14.6	11.8		15.9	12.7	12.7	15.4	7.57	6.39	6.58	4.19	5.47	7.42	6.3	6.05	
Cc1nc2sccn2c(=O)c1CCN1CCC(=C(c2ccc(F)cc2)c2ccc(F)cc2)CC1	32.2	21.9 µM		26.4	26.5		41	28.9	23.7	25.2	16.8	9.2	9.96	5.92	3.78	15.3	15	10.5	
COc1cc(C(=O)/C=C/c2cc(C(=O)c3cc(OC)c(OC)c(OC)c3)ccc2OC)ccc1N	3.72	3.14 µM		8.62	6.82		7.39	3.98	2.22	14.1	1.63	1.32	2.07	1.48	0.419	2.14	1.53	1.02	
COc1ccc(NC(=O)n2nc(N)c3ccccc32)cc1OC	> 100	> 100 µM		84	> 100		> 100	> 100	> 100	80.8	37.2	73.6	18.1	27.9	21.1	83.1	95.9	61.7	
O=[N+]([O-])c1ccc(-c2nc(-c3ccccc3)c(-c3ccccc3)n2-c2ccccc2)cc1	8.6	5.87 µM		7.28	5.83		> 24.5	4.78	10.7	5.43	3.04	2.39	2.42	2.41	1.53	4.57	2.02	2.74	
CN(C)c1ccc(N=Cc2c([O-])ccc3ccccc23)cc1.[C-]#[O+].[C-]#[O+].[Ir]		37.1 µM		65		25.9	33.1	40.7	30.4	> 100		16.3	21.1		23.2	15.2	19.9	15.7	12.5
CCOC(=O)c1sc2nc3sc(N=Nc4ccc(Cl)cc4)c(O)n3c(=S)c2c1C	> 100	60.6 µM		> 100	> 100		21.6	50.5	> 100	> 100	> 100	23.4	> 100	> 100	21.4		25.1	29.1	
CC(C)(C)NN=C1C(C)(C)C(=NNC(C)(C)C)C1(C)C		> 100 µM	> 100	> 100	> 100	> 100	> 100	> 100	> 100	> 100									
CCC(C)n1cc(C)c2c(C(=O)NCc3c(C)cc(C)[nH]c3=O)cc(Br)cc21 (centres undefined)	> 100	> 100 µM		> 100	58.4		> 100	> 100	> 100	68	35.9	32.8	> 100	24.3	24.8	57.5	> 100	62.8	
Cn1c2c(c3ccccc31)C1CCCCC1C1C(=O)NC(=O)C21 (centres undefined)			> 100	> 100	63.5	> 100	> 100	> 100	> 100	> 100									
COc1cccc(C2C(C#N)=C(N)Oc3cc(N)ccc32)c1 (centres undefined)	> 100	> 100 µM		> 100	0.745		> 100	1.37		> 69	0.397	0.319	0.854	0.35	0.412	5.52	0.343	0.369	
Cc1ccc(NC(=O)NC(=O)c2ccc([N+](=O)[O-])cc2[N+](=O)[O-])cc1Oc1ncc(Cl)cn1		16.9 µM	26.5	29.7	0.584	11.1	2.53	0.91	3.83	3.08									
Cc1cc2cc3cc(C)c(N(C)C)cc3nc2cc1N(C)C	75.7	21.8 µM		> 100	> 100		24	12.7	> 100	> 100	4.02	3.37	4.96	0.34	4.16	3.19	3.08	1.42	
COc1ccc(C(=O)c2ccc(OC)c(OC)c2OC)cc1	3.33	> 100 µM		> 100	> 100		> 100	8.2	> 100	> 100	0.402	3.73	1.76	0.464	2.59	34.7	1.79	0.725	
CC(=O)c1ccc(NC(=O)CSc2nnc(-c3cc(-c4ccc(C)cc4)nc4ccccc34)o2)cc1	31.2	> 100 µM		> 100	> 100		6.37	3.92	3.92	> 100	12.3	> 100	3.31	> 100	3.37	2.39	1.8	1.97	
CN1C2(c3ccccc3)c3c(-c4ccccc4)sc(-c4ccccc4)c3C1(c1ccccc1)C1C(=O)N(c3ccccc3)C(=O)C12 (centres undefined)		> 100 µM	> 100	> 100	> 100	> 100	> 100	> 100	> 100	> 100									
